Source: patent US10174013B2, “Benzimidazole derivatives as kinase inhibitors” (SELVITA S.A., priority 2012, dated 2019)
Where a name gives a salt, the structure may show the parent alone. Read-outs that look alike come from different tables or passages of the source.

Key:
Pim-1 = Pim-1 (Homo sapiens (Human), UniProt P11309); test: ADP-Glo Kinase Assay, Pim-1; format: biochemical; conditions: 1 μM compound; for inhibition at 1 µM: read-out: Pim-1 % INH (1 μM)
Outline: (§1)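 Compounds were diluted in assay buffer to 1000 nM and incubated with kinase, substrate and ATP at apparent Km. Remaining ATP was depleted, ADP converted to ATP and detected by luciferase; percent inhibition came from normalized luminescence.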

Pim-2 = Pim-2 (Homo sapiens (Human), UniProt Q9P1W9); test: ADP-Glo Kinase Assay, Pim-2; format: biochemical; conditions: 1 μM compound; for inhibition at 1 µM: read-out: Pim-2 % INH (1 μM)
Outline: as §1

Pim-3 = Pim-3 (Homo sapiens (Human), UniProt Q86V86); test: ADP-Glo Kinase Assay, Pim-3; format: biochemical; conditions: 1 μM compound; for inhibition at 1 µM: read-out: Pim-3 % INH (1 μM)
Outline: as §1

FLT3wt = FLT3wt (Homo sapiens (Human), UniProt P36888); test: ADP-Glo Kinase Assay, Flt3 wt; format: biochemical; conditions: 1 μM compound; for inhibition at 1 µM: read-out: Flt3wt % INH (1 μM)
Outline: as §1

CDK2/E = CDK2/E (Homo sapiens (Human), UniProt P24941); test: ADP-Glo Kinase Assay, CDK2/E; format: biochemical; conditions: 1 μM compound; for inhibition at 1 µM: read-out: CDK2/E % INH (1 μM)
Outline: as §1

MV4-11 cells = test: Growth inhibition, MTS assay, MV4-11; format: cell-based, Human; conditions: MTS cell viability, read-out: MV4-11 ED50
MV4-11 xenograft = MV4-11 xenograft in immunocompromised mice; format: in vivo
Outline: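 MV4-11 leukemic cells engrafted in NOD/scid or SCID/beige mice; oral dosing started at tumor volume approx. 50-200 mm^3, daily QD or BID for 2-3 weeks. Efficacy read as tumor growth inhibition (TGI), tolerability as body weight change (ΔBW).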

hERG potassium channel = hERG potassium channel (Homo sapiens (Human), UniProt Q12809); test: hERG automated patch clamp assay (QPatch HT)
Outline: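 Automated whole-cell patch clamp of hERG current in mammalian cells at room temperature. Compounds applied at 0.1, 1, 3, 10 and 30 μM, 3 min per concentration, n≥2 cells each.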

[1] = MV4-11 xenograft, oral, 75 mg/Kg BID
[2] = MV4-11 xenograft, oral, doses as in Table 3
[3] = MV4-11 xenograft, oral, 150 mg/Kg QD
[4] = MV4-11 xenograft, oral, 100 mg/Kg QD
[5] = MV4-11 xenograft, oral, 150 mg/Kg BID

Chain of FLT3wt (P36888 27-993): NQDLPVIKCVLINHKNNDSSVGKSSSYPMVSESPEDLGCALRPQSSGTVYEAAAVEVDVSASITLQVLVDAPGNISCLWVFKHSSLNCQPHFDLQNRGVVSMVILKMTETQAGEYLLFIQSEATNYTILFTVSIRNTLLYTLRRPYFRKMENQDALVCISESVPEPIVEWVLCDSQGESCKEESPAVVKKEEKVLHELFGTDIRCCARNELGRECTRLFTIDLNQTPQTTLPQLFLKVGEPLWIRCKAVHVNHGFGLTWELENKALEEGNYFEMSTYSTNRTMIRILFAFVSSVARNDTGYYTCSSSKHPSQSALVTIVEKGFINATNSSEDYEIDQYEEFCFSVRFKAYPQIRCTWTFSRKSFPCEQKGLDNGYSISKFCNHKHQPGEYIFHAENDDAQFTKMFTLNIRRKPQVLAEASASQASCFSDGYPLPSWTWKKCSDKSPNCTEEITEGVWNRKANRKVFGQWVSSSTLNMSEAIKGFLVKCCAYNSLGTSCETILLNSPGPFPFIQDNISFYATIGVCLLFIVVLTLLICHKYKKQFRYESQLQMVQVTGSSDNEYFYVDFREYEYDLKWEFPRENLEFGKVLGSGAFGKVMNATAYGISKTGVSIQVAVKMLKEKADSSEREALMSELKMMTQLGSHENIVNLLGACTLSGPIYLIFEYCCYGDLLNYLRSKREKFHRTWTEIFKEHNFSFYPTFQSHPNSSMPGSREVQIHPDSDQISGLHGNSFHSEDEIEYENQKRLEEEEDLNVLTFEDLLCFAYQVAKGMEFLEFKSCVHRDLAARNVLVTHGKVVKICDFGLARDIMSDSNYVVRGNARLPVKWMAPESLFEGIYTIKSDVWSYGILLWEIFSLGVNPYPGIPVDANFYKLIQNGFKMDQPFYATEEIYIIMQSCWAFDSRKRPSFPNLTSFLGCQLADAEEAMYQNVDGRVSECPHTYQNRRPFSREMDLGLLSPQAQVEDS
Chain of hERG potassium channel (Q12809 whole entry): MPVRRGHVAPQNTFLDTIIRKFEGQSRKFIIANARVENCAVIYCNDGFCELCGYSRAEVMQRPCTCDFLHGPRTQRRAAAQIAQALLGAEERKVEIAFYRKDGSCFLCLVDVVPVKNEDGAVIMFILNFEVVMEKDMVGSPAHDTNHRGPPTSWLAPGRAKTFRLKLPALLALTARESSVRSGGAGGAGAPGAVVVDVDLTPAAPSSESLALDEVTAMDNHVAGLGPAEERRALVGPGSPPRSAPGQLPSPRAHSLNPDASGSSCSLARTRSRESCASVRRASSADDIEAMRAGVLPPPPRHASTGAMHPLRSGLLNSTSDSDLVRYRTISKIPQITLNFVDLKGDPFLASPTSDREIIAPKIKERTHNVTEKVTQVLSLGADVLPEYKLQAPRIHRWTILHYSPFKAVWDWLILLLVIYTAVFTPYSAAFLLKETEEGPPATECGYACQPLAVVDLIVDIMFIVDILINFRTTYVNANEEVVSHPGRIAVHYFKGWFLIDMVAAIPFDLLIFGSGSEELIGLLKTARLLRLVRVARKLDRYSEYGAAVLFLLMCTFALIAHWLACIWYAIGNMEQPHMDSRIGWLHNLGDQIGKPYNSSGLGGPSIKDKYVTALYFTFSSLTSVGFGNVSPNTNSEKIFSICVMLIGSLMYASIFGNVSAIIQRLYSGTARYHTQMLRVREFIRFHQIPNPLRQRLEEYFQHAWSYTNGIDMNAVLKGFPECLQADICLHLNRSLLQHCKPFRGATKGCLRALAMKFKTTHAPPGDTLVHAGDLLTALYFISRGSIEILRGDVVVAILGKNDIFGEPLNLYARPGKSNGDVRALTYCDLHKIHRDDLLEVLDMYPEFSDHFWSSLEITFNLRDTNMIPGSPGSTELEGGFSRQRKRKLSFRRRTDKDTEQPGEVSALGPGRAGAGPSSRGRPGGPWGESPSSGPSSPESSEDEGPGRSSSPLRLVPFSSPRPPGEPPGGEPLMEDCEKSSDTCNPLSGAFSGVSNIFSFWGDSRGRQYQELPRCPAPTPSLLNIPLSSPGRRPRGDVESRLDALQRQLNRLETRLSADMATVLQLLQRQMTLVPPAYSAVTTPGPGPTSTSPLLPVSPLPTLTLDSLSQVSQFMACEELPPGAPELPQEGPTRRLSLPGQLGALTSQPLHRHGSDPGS
Chain of Pim-2 (Q9P1W9 whole entry): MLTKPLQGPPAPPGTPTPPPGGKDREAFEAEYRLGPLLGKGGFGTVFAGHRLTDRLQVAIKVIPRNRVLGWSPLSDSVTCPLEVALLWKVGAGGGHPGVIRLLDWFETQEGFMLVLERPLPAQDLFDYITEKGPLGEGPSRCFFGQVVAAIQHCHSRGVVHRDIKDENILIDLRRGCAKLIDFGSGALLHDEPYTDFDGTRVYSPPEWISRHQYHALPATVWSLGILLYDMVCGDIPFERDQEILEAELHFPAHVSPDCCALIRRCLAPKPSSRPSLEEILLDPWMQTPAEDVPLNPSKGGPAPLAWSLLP
Chain of Pim-1 (P11309 whole entry): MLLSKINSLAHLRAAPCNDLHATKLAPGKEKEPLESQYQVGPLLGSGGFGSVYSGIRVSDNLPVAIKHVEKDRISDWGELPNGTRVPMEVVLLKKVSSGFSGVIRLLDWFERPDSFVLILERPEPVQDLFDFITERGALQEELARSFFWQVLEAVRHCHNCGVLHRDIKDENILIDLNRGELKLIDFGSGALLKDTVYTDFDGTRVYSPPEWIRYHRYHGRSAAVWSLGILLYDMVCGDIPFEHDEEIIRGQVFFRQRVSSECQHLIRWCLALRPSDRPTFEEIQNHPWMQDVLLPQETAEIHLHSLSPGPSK

inhibition at 1 µM (Pim-1) [%] | inhibition at 1 µM (Pim-2) [%] | inhibition at 1 µM (Pim-3) [%] | inhibition at 1 µM (FLT3wt) [%] | inhibition at 1 µM (CDK2/E) [%] | IC50 (MV4-11 cells; Homo sapiens, MV4-11, 72 h) [nM] | SMILES | TGI (tumor growth inhibition) (MV4-11 xenograft; [2]) | TGI (tumor growth inhibition) (MV4-11 xenograft; [3]) [%] | ΔBW (body weight change) (MV4-11 xenograft; [3]) [%] | IC50 (hERG potassium channel) [nM] | other results
> 95 | 82 | 95 | 27 | 22 | 600 | CC(C)n1c(N2CC[C@@H](N)C2)nc2c(C#N)c(Br)c(Br)cc21 [Example 1BI] | above 87% | 87 | 3.8 | – | IC50 (hERG potassium channel; human, 3 min): 5170 nM
– | – | – | – | – | – | CC(C)n1c(N2CCNC[C@H]2C)nc2c([N+](=O)[O-])c(Br)c(Br)cc21 [Example 1AX] | exceeding 97% | – | – | 1230 | Pim-1 % INH (1 μM) (Pim-1): >95%; Pim-2 % INH (1 μM) (Pim-2): 77%; Pim-3 % INH (1 μM) (Pim-3): 95%; Flt3wt % INH (1 μM) (FLT3wt): 83%; IC50 (MV4-11 cells; 72 hours): 100 nM; TGI (tumor growth inhibition) (MV4-11 xenograft; [4]): 97%; ΔBW (body weight change) (MV4-11 xenograft; [4]): −2.2%
– | – | – | – | – | – | CCCn1c(N2CCNCC2)nc2c([N+](=O)[O-])c(Br)c(Br)cc21 [Example 1M] | more than 70% | – | – | 520 | Pim-1 % INH (1 μM) (Pim-1): >95%; Pim-2 % INH (1 μM) (Pim-2): 44%; Pim-3 % INH (1 μM) (Pim-3): 73%; Flt3wt % INH (1 μM) (FLT3wt): 46%; CDK2/E % INH (1 μM) (CDK2/E): <5%; IC50 (MV4-11 cells; 72 hours): 600 nM; TGI (tumor growth inhibition) (MV4-11 xenograft; [5]): 76%; ΔBW (body weight change) (MV4-11 xenograft; [5]): 9.2%
> 95 | 68 | 90 | 65 | 36 | 200 | CC(C)n1c(C2CCNCC2)nc2c([N+](=O)[O-])c(Br)c(Br)cc21 [Example 26A, 5,6-dibromo-4-nitro-2-(piperidin-4-yl)-1-(propan-2-yl)-1H-1,3-benzodiazole] | – | – | – | – | ΔBW (body weight change) (MV4-11 xenograft; MV-4-11 xenograft, 26A 25 mg/Kg BID): −6%; TGI (tumor growth inhibition) (MV4-11 xenograft; MV-4-11 xenograft, 26A 25 mg/Kg BID, 15 days): 77%; ΔBW (body weight change) (MV4-11 xenograft; MV-4-11 xenograft, 26A 50 mg/Kg BID): −3%; TGI (tumor growth inhibition) (MV4-11 xenograft; MV-4-11 xenograft, 26A 50 mg/Kg BID, 15 days): 87%
> 95 | 53 | > 95 | 55 | 21 | 600 | Cl.O=[N+]([O-])c1c(Br)c(Br)cc2c1nc(N1CCNCC1)n2C1CCCC1 [Example 2D, 5,6-dibromo-1-cyclopentyl-4-nitro-2-(piperazin-1-yl)-1H-1,3-benzodiazole hydrochloride] | above 87% | 88 | −3.5 | 1600 | –

SMILES | inhibition at 1 µM (Pim-1) [%] | inhibition at 1 µM (Pim-2) [%] | inhibition at 1 µM (Pim-3) [%] | inhibition at 1 µM (FLT3wt) [%] | inhibition at 1 µM (CDK2/E) [%] | IC50 (MV4-11 cells; Homo sapiens, MV4-11, 72 h) [nM] | TGI (tumor growth inhibition) (MV4-11 xenograft; [2]) | TGI (tumor growth inhibition) (MV4-11 xenograft; [3]) [%] | ΔBW (body weight change) (MV4-11 xenograft; [3]) [%] | IC50 (hERG potassium channel) [nM] | other results
CCn1c(N2CCNCC2)nc2c([N+](=O)[O-])c(Br)c(Br)cc21 [Example 1A, 5,6-dibromo-1-ethyl-4-nitro-2-(piperazin-1-yl)-1H-1,3-benzodiazole hydrochloride] | 81 | 22 | 65 | 26 | < 5 | – | more than 70% | – | – | – | IC50 (MV4-11 cells; Homo sapiens, MV4-11, 72 hours): 500 nM; TGI (tumor growth inhibition) (MV4-11 xenograft; [1]): 73%; ΔBW (body weight change) (MV4-11 xenograft; [1]): 5.4%; IC50 (hERG potassium channel; human, 3 min): 1600 nM
CC(C)n1c(N2CCNCC2)nc2c([N+](=O)[O-])c(Br)c(Br)cc21 [Example 2A, 5,6-dibromo-4-nitro-2-(piperazin-1-yl)-1-(propan-2-yl)-1H-1,3-benzodiazole hydrochloride] | > 95 | 49 | 89 | 66 | 44 | 300 | exceeding 97% | 99 | −4.4 | 3060 | –
